Test results as given in patent publication US11739098B2 (BRISTOL-MYERS SQUIBB COMPANY, priority 2017, dated 2023).
pIC50: −log10 of the molar value.

Legend:
Format in all cases: cell-based
[1] = target: T1, human TLR9 (Homo sapiens, UniProt Q9NR96); test: TLR9 inhibition reporter assay (HEK-Blue cells, SEAP reporter, ODN2006 stimulation); settings: HEK-Blue cells overexpressing human TLR9, SEAP reporter, ODN2006 5 nM
T1 construct: host or cells: HEK-Blue cells (HEK293-derived reporter line)
T1 sequence (Q9NR96 26-1032): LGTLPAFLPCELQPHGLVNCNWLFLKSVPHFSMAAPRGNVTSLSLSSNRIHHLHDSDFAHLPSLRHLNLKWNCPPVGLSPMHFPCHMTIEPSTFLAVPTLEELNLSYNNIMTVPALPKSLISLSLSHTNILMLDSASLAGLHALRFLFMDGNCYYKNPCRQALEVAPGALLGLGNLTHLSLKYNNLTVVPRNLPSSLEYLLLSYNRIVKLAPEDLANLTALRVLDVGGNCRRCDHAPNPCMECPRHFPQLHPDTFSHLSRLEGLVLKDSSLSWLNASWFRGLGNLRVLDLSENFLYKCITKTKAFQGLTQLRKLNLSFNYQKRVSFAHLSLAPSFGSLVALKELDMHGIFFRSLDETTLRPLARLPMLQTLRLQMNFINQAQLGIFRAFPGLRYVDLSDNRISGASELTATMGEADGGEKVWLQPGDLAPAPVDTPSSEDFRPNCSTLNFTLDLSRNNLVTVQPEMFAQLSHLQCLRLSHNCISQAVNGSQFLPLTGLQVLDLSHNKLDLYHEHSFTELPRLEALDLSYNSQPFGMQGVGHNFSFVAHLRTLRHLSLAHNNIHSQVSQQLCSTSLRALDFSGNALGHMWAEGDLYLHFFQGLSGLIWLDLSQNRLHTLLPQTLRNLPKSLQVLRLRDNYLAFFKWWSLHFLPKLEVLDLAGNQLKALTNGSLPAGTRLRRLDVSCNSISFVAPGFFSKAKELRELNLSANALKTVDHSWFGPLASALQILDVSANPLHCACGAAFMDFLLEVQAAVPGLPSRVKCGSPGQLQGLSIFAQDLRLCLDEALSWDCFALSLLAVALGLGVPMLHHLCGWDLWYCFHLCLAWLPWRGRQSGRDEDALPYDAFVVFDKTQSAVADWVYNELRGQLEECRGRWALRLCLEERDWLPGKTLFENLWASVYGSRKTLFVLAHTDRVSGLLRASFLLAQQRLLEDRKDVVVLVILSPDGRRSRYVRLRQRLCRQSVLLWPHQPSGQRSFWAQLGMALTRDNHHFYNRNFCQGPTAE
In short: (§1)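 After 22 h at 37 °C, SEAP secretion was measured from human TLR7-, TLR8- or TLR9-expressing HEK-Blue reporter cells given compound (0.05 nM–50 μM) 30 min before agonist: 7.5 μM gardiquimod, 15.9 μM R848 or 5 nM ODN2006 respectively. Percent inhibition referenced to agonist-plus-DMSO and known-inhibitor wells.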

[2] = target: T2, human TLR7 (Homo sapiens, UniProt Q9NYK1); test: TLR7 inhibition reporter assay (HEK-Blue cells, SEAP reporter, gardiquimod stimulation); settings: HEK-Blue cells overexpressing human TLR7, SEAP reporter, gardiquimod 7.5 μM
T2 construct: host or cells: HEK-Blue cells (HEK293-derived reporter line)
T2 sequence (Q9NYK1 27-1049): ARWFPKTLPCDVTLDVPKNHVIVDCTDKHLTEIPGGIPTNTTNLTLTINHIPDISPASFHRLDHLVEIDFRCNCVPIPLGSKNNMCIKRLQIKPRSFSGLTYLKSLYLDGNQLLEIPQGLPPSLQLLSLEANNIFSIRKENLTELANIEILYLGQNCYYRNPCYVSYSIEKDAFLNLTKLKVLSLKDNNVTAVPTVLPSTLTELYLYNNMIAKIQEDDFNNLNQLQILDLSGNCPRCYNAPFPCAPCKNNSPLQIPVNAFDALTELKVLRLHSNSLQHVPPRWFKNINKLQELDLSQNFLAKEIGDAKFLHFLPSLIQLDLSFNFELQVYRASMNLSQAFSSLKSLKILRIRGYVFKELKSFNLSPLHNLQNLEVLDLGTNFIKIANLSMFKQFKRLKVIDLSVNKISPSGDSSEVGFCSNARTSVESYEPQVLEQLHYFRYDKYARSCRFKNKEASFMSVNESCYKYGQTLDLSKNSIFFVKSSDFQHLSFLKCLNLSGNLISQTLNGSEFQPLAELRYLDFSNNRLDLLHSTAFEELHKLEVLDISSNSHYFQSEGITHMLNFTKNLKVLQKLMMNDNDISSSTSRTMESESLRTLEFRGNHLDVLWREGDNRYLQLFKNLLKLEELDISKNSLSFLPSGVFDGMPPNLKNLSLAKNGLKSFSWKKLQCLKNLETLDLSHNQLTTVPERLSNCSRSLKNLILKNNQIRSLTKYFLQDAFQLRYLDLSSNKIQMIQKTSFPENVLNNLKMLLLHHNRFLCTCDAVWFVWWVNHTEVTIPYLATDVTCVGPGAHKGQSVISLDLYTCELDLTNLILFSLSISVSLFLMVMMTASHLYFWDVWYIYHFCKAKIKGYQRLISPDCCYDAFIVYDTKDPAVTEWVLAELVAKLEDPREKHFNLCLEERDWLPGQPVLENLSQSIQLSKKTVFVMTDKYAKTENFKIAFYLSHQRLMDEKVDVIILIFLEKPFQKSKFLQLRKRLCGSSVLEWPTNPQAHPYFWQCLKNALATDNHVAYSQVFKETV
In short: as §1

[3] = target: T3, human TLR8 (Homo sapiens, UniProt Q9NR97); test: TLR8 inhibition reporter assay (HEK-Blue cells, SEAP reporter, R848 stimulation); settings: HEK-Blue cells overexpressing human TLR8, SEAP reporter, R848 15.9 μM
T3 construct: host or cells: HEK-Blue cells (HEK293-derived reporter line)
T3 sequence (Q9NR97 27-1041): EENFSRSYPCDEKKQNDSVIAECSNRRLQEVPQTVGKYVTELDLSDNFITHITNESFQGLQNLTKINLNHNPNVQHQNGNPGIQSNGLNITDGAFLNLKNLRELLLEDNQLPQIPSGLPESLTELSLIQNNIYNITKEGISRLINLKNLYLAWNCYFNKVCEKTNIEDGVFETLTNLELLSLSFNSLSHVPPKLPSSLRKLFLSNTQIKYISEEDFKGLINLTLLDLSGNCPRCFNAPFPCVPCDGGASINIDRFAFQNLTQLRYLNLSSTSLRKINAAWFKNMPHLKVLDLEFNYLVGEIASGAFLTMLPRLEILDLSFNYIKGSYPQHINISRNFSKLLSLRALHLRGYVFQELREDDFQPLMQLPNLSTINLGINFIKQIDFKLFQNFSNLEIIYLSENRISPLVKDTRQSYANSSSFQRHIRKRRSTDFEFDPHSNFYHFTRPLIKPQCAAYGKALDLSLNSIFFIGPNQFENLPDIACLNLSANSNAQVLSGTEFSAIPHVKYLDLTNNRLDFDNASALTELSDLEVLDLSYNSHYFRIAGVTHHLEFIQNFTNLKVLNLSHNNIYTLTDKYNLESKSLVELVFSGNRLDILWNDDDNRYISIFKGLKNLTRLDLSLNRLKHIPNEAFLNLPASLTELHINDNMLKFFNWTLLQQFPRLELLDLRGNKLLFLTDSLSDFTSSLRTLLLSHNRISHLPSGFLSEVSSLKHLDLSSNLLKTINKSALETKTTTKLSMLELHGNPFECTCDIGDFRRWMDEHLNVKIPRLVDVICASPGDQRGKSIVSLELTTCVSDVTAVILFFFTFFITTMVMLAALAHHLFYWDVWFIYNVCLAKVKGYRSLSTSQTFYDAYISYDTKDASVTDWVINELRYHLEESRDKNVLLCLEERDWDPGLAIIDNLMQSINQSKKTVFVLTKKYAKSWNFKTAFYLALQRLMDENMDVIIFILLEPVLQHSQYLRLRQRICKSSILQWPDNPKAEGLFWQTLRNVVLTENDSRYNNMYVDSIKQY
In short: as §1

Row | Compound | pIC50 [1] | pIC50 [2] | pIC50 [3]
1 | Cc1c(-c2nccc3[nH]cnc23)[nH]c2ccc(C3CCN(C4CCN(C(C)C)CC4)CC3)cc12 [Example 805, 4-(5-(1′-isopropyl-[1,4′-bipiperidin]-4-yl)-3-methyl-1H-indol-2-yl)-1H-imidazo[4,5-c]pyridine] | > 7.00 | 4.30 to 6.00 | 4.30 to 6.00
2 | Cc1cc2nnnn2cc1-c1[nH]c2ccc(C3CCN(C4COC4)CC3)cc2c1C(C)C [Example 742, 6-(3-isopropyl-5-(1-(oxetan-3-yl)piperidin-4-yl)-1H-indol-2-yl)-7-methyltetrazolo[1,5-a]pyridine] | 4.30 to 6.00 | > 7.00 | 6.00 to 7.00
3 | Cc1nnn2ccc(-c3[nH]c4ccc(C5CCN(CC(=O)N(C)C)CC5)cc4c3C(C)C)cc12 [Example 318, 2-(4-(3-isopropyl-2-(3-methyl-[1,2,3]triazolo[1,5-a]pyridin-5-yl)-1H-indol-5-yl)piperidin-1-yl)-N,N-dimethylacetamide] | 4.30 to 6.00 | > 7.00 | > 7.00
4 | CC(C)c1c(-c2ccn3cnnc3c2)[nH]c2ccc(C3CCN(CC(=O)N(C)C)CC3)cc12 [Example 305, 2-(4-(2-([1,2,4]triazolo[4,3-a]pyridin-7-yl)-3-isopropyl-1H-indol-5-yl)piperidin-1-yl)-N,N-dimethylacetamide] | 4.30 to 6.00 | 6.00 to 7.00 | 6.00 to 7.00
5 | CC(C)c1c(-c2ccnc3[nH]c(=O)oc23)[nH]c2ccc(C3CCNCC3)cc12 [Example 58, 7-(3-isopropyl-5-(piperidin-4-yl)-1H-indol-2-yl)oxazolo[4,5-b]pyridin-2(3H)-one] | 4.30 to 6.00 | 4.30 to 6.00 | 4.30 to 6.00
6 | CC(C)c1c(-c2ccn3cnnc3c2)[nH]c2ccc(C3CCNCC3)cc12 [Example 83, 7-(3-isopropyl-5-(piperidin-4-yl)-1H-indol-2-yl)-[1,2,4]triazolo[4,3-a]pyridine] | 6.00 to 7.00 | > 7.00 | 6.00 to 7.00
7 | Cc1cc(-c2[nH]c3ccc(C4CCN(C(=O)CN5CCC(F)CC5)CC4)cc3c2C(C)C)cn2nnnc12 [Example 474, 2-(4-fluoropiperidin-1-yl)-1-(4-(3-isopropyl-2-(8-methyltetrazolo[1,5-a]pyridin-6-yl)-1H-indol-5-yl)piperidin-1-yl) ethan-1-one] | 4.30 to 6.00 | > 7.00 | > 7.00
8 | CC(C)c1c(-c2ccc(C#N)c3ncccc23)[nH]c2ccc(C3CCN(CC(N)=O)CC3)cc12 [Example 369, 2-(4-(2-(8-cyanoquinolin-5-yl)-3-isopropyl-1H-indol-5-yl)piperidin-1-yl)acetamide] | 4.30 to 6.00 | > 7.00 | > 7.00
9 | Cc1cn2cc(-c3[nH]c4ccc(C5CCN(C(=O)CC(C)(C)O)CC5)cc4c3C(C)C)c(C)cc2n1 [Example 597, 1-(4-(2-(2,7-dimethylimidazo[1,2-a]pyridin-6-yl)-3-isopropyl-1H-indol-5-yl)piperidin-1-yl)-3-hydroxy-3-methylbutan-1-one] | 4.30 to 6.00 | 6.00 to 7.00 | < 5.51
10 | CC(C)c1c(-c2cn(C)c3ncccc23)[nH]c2ccc(C3CCN(CCS(N)(=O)=O)CC3)cc12 [Example 783, 2-(4-(3-isopropyl-2-(1-methyl-1H-pyrrolo[2,3-b]pyridin-3-yl)-1H-indol-5-yl)piperidin-1-yl)ethane-1-sulfonamide] | 4.30 to 6.00 | > 7.00 | > 7.00
11 | Cc1c(-c2[nH]c3ccc(C4CCNCC4)cc3c2C(C)C)cn2ccnc2c1Cl [Example 133, 8-chloro-6-(3-isopropyl-5-(piperidin-4-yl)-1H-indol-2-yl)-7-methylimidazo[1,2-a]pyridine] | 4.30 to 6.00 | > 7.00 | > 7.00
12 | Cc1cn2cc(-c3[nH]c4ccc(C5CCN(C(=O)CC(C)O)CC5)cc4c3C(C)C)c(C)cc2n1 (stereo not drawn) [Example 596, 1-(4-(2-(2,7-dimethylimidazo[1,2-a]pyridin-6-yl)-3-isopropyl-1H-indol-5-yl)piperidin-1-yl)-3-hydroxybutan-1-one] | 4.30 to 6.00 | > 7.00 | < 5.51
13 | CC(C)c1c(-c2cc(CO)c3nccn3c2)[nH]c2ccc(C3CCN(CC(=O)N(C)C)CC3)cc12 [Example 329, 2-(4-(2-(8-(hydroxymethyl)imidazo [1,2-a]pyridin-6-yl)-3-isopropyl-1H-indol-5-yl)piperidin-1-yl)-N,N-dimethylacetamide] | 6.00 to 7.00 | > 7.00 | > 7.00
14 | CC(C)c1c(-c2ccnc3[nH]ncc23)[nH]c2ccc(C3CCN(Cc4ccccn4)CC3)cc12 [Example 866, 4-(3-isopropyl-5-(1-(pyridin-2-ylmethyl)piperidin-4-yl)-1H-indol-2-yl)-1H-pyrazolo[3,4-b]pyridine] | 4.30 to 6.00 | > 7.00 | > 7.00
